# Laboratory results reported in ChEMBL document CHEMBL6092197, “Novel benzenesulfonamide-aroylhydrazone conjugates as carbonic anhydrase inhibitors that induce MAPK/ERK-mediated cell cycle arrest and mitochondrial-associated apoptosis in MCF-7 breast cancer cells” (Bioorg Med Chem, 2024).
# Key:
# Carbonic anhydrase 1 = Carbonic anhydrase 1 (Homo sapiens, UniProt P00915); assay: Inhibition of human carbonic anhydrase I assessed as inhibition constant incubated for 15 mins by stopped flow CO2-hydrase assay
# Carbonic anhydrase 2 = Carbonic anhydrase 2 (Homo sapiens, UniProt P00918); assay: Inhibition of human carbonic anhydrase II assessed as inhibition constant incubated for 15 mins by stopped flow CO2-hydrase assay
# Carbonic anhydrase 9 = Carbonic anhydrase 9 (Homo sapiens, UniProt Q16790); assay: Inhibition of human carbonic anhydrase IX assessed as inhibition constant incubated for 15 mins by stopped flow CO2-hydrase assay
# Carbonic anhydrase 12 = Carbonic anhydrase 12 (Homo sapiens, UniProt O43570); assay: Inhibition of human carbonic anhydrase XII assessed as inhibition constant incubated for 15 mins by stopped flow CO2-hydrase assay
# [1] = Selectivity index, ratio of IC50 for human HaCaT cells to IC50 for human HCT-116 cells; type: toxicity; details: HaCaT cells versus HCT-116 cells, read-out: Ratio IC50
# [2] = Selectivity index, ratio of IC50 for human HaCaT cells to IC50 for human HeLa cells; type: toxicity; details: HaCaT cells versus HeLa cells, read-out: Ratio IC50
# [3] = Selectivity index, ratio of IC50 for human HaCaT cells to IC50 for human MCF7 cells; type: toxicity; details: HaCaT cells versus MCF7 cells, read-out: Ratio IC50
# HCT-116 = assay: cells; details: Homo sapiens, HCT-116, 72 h
# Description: Antiproliferative activity against human HCT-116 cells assessed as reduction in cell proliferation incubated for 72 hrs by MTT assay
# HeLa = assay: cells; details: Homo sapiens, 72 h
# Description: Antiproliferative activity against human HeLa cells assessed as reduction in cell proliferation incubated for 72 hrs by MTT assay
# MCF7 [4] = assay: cells; details: Homo sapiens, MCF7, 72 h
# Description: Antiproliferative activity against human MCF7 cells assessed as reduction in cell proliferation incubated for 72 hrs by MTT assay
# in vitro = details: human, HaCaT cells
# Description: Cytotoxicity against human HaCaT cells assessed as reduction in cell proliferation incubated for 72 hrs by MTT assay
# MCF7 [5] = assay: Antiproliferative activity against human MCF7 cells assessed as reduction in cell proliferation incubated for 24 hrs by MTT assay; type: functional, cell-based; details: MCF7, 24 h
# MCF7 [6] = assay: Antiproliferative activity against human MCF7 cells assessed as reduction in cell proliferation incubated for 48 hrs by MTT assay; type: functional, cell-based; details: MCF7, 48 h
# MCF7 [7] = assay: Inhibition of colony formation in human MCF7 cells assessed as reduction in colony formation at […] preincubated with compound for 24 hrs followed by replacement with DMEM medium and measured after 2 weeks by crystal violet staining based analysis relative to control; type: functional; details: dose 2.5 µM
# MCF7 [8] = assay: Inhibition of colony formation in human MCF7 cells assessed as reduction in colony formation at 5 uM preincubated with compound for 24 hrs followed by replacement with DMEM medium and measured after 2 weeks by crystal violet staining based analysis relative to control; type: functional
# MCF7 [9] = assay: Induction of apoptosis in human MCF7 cells assessed as total apoptotic cells at 10 uM incubated for 72 hrs by Annexin V-PE/7-AAD staining based flow cytometric analysis relative to control; type: functional
# MCF7 [10] = assay: Induction of apoptosis in human MCF7 cells assessed as increase in caspase activity at 10 uM preincubated for 48 hrs followed by carboxyfluorescein-labeled fluoro-methyl ketone peptide addition and measured after 1 hrs by fluorescence based analysis relative to control; type: functional
# MCF7 [11] = assay: Effect on apoptosis in human MCF7 cells assessed as fold decrease in apoptotic cells at 10 uM preincubated with U0126 for 1 hrs followed by compound addition and measured after 72 hrs by Annexin V-PE/7-AAD staining based flow cytometric analysis; type: functional
# Chain of Carbonic anhydrase 12 (O43570 whole entry): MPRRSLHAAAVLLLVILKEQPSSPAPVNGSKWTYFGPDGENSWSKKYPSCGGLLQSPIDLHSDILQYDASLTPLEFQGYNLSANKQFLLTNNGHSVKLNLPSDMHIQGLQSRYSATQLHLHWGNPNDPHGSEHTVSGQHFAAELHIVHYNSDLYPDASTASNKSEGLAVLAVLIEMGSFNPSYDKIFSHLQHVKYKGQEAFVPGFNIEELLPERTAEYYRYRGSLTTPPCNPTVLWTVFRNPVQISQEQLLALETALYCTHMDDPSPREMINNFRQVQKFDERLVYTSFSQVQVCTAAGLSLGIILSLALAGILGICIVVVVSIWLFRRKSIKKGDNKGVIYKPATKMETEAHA
# Chain of Carbonic anhydrase 1 (P00915 whole entry): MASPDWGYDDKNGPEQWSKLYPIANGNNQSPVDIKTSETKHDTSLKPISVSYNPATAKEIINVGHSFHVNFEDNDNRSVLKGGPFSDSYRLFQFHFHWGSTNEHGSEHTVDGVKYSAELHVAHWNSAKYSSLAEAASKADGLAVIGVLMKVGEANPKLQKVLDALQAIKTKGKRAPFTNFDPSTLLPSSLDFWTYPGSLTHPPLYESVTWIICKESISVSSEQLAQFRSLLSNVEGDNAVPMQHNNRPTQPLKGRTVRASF
Ki (Carbonic anhydrase 1) [µM],Ki (Carbonic anhydrase 2) [µM],Ki (Carbonic anhydrase 9) [µM],Ki (Carbonic anhydrase 12) [µM],IC50 (HCT-116) [µM],IC50 (HeLa) [µM],IC50 (MCF7 [4]) [µM],IC50 at 72 h (in vitro) [µM],IC50 (MCF7 [5]) [µM],IC50 (MCF7 [6]) [µM],SMILES,selectivity ratio [1],selectivity ratio [2],selectivity ratio [3],inhibition at […] (MCF7 [7]) [%],inhibition at 5 µM (MCF7 [8]) [%],Activity (MCF7 [9]) [%],Activity (MCF7 [10]) [%],fold change (FC) (MCF7 [11])
0.0807,0.0561,0.0801,0.0803,11.5,28,25,32,,,NS(=O)(=O)c1cc(C(=O)N/N=C/c2ccc(O)cc2O)c(SCc2ccc(F)cc2)cc1Cl,2.9,1.1,1.2,,,,,
,,,,18,36,24,65,,,NNC(=O)c1cc(S(N)(=O)=O)c(Cl)cc1SCc1ccc(F)cc1,3.6,1.8,2.7,,,,,
0.144,0.0491,0.0581,0.0568,14,29,22,58,,,NS(=O)(=O)c1cc(C(=O)N/N=C/c2ccc(O)cc2O)c(SCc2ccccc2)cc1Cl,4.1,2,2.6,,,,,
0.537,0.646,0.852,0.695,6,18,6,33,90,6,NS(=O)(=O)c1cc(C(=O)N/N=C/c2ccc(Br)cc2O)c(SCc2ccc(F)cc2)cc1Cl,5.5,1.8,5.5,65,80,60,30,2.2
,,,,155,350,105,,,,NNC(=O)c1cc(S(N)(=O)=O)c(Cl)cc1SCc1ccccc1,,,,,,,,
0.328,0.0411,0.0857,0.0822,,16,4,,98,6,NS(=O)(=O)c1cc(C(=O)N/N=C/c2ccc(Br)cc2O)c(SCc2ccccc2)cc1Cl,,2,8.2,80,85,65,30,2
